Experimental data from US20230321123A1, “INHIBITORS OF PSEUDOMONAS AERUGINOSA VIRULENCE FACTOR LasB” (Helmholtz-Zentrum Für Infektionsforschung GmbH, priority 2020, published 2023).
Like-named read-outs stand apart in the source and are kept apart here.

Assays:
[1] = target: T1, MMP-1 (Homo sapiens, UniProt P03956); assay: Selectivity against human off-targets: MMP-1; format: biochemical; conditions: read-out: Inhibition [%] MMP-1
T1 sequence (P03956 100-469): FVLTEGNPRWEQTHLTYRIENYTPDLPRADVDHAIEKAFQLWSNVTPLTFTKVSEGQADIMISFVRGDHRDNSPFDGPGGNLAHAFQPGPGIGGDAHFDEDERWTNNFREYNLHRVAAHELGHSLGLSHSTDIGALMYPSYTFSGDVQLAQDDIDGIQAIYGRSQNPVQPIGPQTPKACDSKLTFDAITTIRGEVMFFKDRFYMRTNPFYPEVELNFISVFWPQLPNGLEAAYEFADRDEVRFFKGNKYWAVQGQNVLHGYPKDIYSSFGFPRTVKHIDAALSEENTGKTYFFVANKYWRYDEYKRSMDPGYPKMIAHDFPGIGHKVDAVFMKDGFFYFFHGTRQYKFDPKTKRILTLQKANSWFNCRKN
Source text: (§1) The inhibition of zinc-containing human enzymes is described frequently for LasB inhibitors and poses a serious difficulty in the development of selective compounds. Particularly, the inhibition of matrix metalloproteases (MMPs) should be avoided. To further investigate this issue, three derivatives (the compounds of examples 1, 5 and 8) have been tested for their selectivity against several human off-targets, including six MMPs, ADAM17 (TACE), HDAC-3 and HDAC-8 (Table 4). The selectivity of the compounds is particularly high for MMPs and HDACs, whereas the inhibition of ADAM17 was considerably stronger.

[2] = system: P. aeruginosa PA14; assay: PA14 inhibition (MIC, antibacterial effect); format: cell-based
Procedure: (§2) The compounds of examples 1 and 5 were not toxic against the cell lines HepG2, HEK293 and A549 (Table 5). Additionally, the inhibitory effect against P. aeruginosa PA14 was evaluated to exclude an antibacterial effect of the compounds of the present invention. This is important as it was the aim to target virulence and not viability of the bacteria. […]

[3] = Cytotoxicity HEK293; format: cell-based; conditions: human
Procedure: as §2

[4] = Cytotoxicity A549; format: cell-based; conditions: human
Procedure: as §2

[5] = target: T2, MMP-2 (Homo sapiens, UniProt P08253); assay: Selectivity against human off-targets: MMP-2; format: biochemical; conditions: read-out: Inhibition [%] MMP-2
T2 sequence (P08253 110-660): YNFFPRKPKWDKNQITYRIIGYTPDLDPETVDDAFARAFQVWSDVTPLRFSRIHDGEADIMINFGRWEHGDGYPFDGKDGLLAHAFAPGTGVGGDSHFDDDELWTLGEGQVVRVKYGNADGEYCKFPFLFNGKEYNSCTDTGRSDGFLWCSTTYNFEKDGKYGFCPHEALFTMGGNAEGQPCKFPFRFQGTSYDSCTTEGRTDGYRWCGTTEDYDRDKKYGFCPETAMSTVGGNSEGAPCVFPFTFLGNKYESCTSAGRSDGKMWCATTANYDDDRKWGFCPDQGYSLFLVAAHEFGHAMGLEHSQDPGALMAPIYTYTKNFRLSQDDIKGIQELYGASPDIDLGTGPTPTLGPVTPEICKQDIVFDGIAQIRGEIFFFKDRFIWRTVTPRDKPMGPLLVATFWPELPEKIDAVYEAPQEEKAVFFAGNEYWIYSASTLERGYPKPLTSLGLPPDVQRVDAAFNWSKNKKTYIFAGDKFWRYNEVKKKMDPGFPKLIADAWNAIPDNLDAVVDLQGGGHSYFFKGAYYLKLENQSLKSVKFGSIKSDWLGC
Source text: as §1

[6] = target: LasB (Pseudomonas aeruginosa, UniProt Q02RJ6); assay: biochemical; parameters: species or system P. aeruginosa
LasB, sequence (Q02RJ6 198-498): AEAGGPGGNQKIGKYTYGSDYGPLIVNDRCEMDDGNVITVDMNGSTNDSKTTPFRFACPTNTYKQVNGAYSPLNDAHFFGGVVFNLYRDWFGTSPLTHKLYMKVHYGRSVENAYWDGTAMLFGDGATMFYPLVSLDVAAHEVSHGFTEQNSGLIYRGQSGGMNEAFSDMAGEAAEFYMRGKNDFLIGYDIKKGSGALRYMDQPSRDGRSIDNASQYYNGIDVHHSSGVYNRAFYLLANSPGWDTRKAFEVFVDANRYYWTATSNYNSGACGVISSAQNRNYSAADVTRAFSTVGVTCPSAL

[7] = Cytotoxicity HepG2; format: cell-based; conditions: human
Procedure: as §2

[8] = target: ADAM17 (TACE) (Homo sapiens, UniProt P78536); assay: Selectivity against human off-targets: ADAM17 (TACE); format: biochemical
ADAM17 (TACE), sequence (P78536 215-824): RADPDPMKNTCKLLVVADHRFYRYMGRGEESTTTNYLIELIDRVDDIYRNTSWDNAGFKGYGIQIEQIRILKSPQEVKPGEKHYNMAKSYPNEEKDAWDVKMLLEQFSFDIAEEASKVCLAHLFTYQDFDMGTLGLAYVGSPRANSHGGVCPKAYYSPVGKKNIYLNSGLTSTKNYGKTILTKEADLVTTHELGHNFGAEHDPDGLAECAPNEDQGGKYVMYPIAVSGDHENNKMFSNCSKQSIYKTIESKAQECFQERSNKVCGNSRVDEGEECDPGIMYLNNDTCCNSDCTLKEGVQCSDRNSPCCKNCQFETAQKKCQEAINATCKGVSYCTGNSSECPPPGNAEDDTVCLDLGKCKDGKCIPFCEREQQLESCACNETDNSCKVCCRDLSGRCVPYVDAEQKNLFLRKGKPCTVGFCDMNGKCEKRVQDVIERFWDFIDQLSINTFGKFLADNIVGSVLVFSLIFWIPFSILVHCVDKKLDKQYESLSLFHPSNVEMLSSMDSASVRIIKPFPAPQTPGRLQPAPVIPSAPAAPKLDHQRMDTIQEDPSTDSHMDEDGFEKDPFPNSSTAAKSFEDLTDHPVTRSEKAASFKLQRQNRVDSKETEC

[9] = target: MMP-3 (Homo sapiens, UniProt P08254); assay: Selectivity against human off-targets: MMP-3; format: biochemical; conditions: read-out: Inhibition [%] MMP-3
MMP-3, sequence (P08254 100-477): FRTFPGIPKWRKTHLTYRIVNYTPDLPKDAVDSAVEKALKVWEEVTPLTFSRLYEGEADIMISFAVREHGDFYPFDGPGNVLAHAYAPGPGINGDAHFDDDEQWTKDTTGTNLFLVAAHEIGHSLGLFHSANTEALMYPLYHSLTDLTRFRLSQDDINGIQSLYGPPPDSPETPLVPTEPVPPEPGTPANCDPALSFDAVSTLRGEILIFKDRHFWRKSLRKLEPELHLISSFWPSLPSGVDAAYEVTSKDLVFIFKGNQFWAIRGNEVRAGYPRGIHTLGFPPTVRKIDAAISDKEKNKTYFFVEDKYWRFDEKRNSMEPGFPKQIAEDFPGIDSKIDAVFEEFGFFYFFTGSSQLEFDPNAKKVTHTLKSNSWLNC
Source text: as §1

[10] = target: COX-1 (Homo sapiens, UniProt P23219); assay: Selectivity against off-targets: COX-1; format: biochemical
COX-1, sequence (P23219 24-599): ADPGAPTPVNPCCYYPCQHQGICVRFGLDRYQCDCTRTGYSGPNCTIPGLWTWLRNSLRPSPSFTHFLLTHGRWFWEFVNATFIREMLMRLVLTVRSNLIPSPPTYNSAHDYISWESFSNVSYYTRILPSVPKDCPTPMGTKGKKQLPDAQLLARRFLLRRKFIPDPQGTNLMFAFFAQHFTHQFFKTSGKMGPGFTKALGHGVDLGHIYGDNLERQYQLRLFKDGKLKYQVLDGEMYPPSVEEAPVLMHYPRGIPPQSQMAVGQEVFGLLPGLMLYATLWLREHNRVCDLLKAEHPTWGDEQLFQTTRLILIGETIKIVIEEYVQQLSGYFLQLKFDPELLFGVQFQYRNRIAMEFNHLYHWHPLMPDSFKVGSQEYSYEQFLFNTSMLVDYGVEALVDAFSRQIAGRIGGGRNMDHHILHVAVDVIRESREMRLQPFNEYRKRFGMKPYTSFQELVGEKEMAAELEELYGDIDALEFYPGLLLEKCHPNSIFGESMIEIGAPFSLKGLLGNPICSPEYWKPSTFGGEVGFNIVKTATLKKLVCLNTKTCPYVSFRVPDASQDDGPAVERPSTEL

[11] = target: HDAC-3 (Homo sapiens, UniProt O15379); assay: Selectivity against human off-targets: HDAC-3; format: biochemical
HDAC-3, sequence (O15379 whole entry): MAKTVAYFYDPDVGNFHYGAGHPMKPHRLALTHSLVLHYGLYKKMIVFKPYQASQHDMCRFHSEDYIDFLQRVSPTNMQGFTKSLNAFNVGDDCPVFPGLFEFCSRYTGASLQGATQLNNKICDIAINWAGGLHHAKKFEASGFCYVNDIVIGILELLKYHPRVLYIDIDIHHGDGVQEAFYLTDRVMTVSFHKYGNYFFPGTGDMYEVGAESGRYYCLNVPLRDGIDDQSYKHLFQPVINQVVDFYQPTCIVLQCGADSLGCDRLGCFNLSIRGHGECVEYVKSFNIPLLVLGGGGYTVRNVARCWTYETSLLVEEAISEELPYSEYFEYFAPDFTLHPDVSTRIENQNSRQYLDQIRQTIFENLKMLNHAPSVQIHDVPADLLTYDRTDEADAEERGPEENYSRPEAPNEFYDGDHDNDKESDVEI
HDAC-3, sequence (Q9Y618 395-489 partner limits assumed): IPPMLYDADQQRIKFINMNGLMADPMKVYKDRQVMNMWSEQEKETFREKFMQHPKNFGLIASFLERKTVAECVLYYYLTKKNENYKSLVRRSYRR
Source text: as §1

[12] = target: MMP-8 (Homo sapiens, UniProt P22894); assay: Selectivity against human off-targets: MMP-8; format: biochemical; conditions: read-out: Inhibition [%] MMP-8
MMP-8, sequence (P22894 101-467): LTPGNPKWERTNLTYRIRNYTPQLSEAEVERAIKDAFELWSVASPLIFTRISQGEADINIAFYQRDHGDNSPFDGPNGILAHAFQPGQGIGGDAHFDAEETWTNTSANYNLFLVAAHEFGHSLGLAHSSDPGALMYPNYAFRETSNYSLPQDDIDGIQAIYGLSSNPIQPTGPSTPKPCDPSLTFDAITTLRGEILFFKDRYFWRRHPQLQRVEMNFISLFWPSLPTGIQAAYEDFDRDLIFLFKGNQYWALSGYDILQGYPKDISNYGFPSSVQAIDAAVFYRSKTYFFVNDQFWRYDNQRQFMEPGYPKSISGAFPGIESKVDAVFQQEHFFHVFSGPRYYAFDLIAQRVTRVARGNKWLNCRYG
Source text: as §1

[13] = target: T3, HDAC-8 (Homo sapiens, UniProt Q9BY41); assay: Selectivity against human off-targets: HDAC-8; format: biochemical
T3 sequence (Q9BY41 1-377): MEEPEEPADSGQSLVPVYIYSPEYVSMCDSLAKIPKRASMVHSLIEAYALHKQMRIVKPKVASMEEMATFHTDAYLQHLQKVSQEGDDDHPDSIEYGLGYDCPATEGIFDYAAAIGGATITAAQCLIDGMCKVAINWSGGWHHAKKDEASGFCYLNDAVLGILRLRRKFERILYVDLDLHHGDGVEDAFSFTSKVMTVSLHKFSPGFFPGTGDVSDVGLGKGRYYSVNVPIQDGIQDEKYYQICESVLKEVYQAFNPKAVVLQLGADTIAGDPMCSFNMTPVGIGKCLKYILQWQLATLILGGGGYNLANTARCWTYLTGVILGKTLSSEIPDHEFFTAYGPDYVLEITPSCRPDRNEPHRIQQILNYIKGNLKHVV
Source text: as §1

[14] = target: MMP-14 (Homo sapiens, UniProt P50281); assay: Selectivity against human off-targets: MMP-14; format: biochemical; conditions: read-out: Inhibition [%] MMP-14
Source text: as §1

[15] = target: T4, MMP-7 (Homo sapiens, UniProt P09237); assay: Selectivity against human off-targets: MMP-7; format: biochemical; conditions: read-out: Inhibition [%] MMP-7
T4 sequence (P09237 95-267): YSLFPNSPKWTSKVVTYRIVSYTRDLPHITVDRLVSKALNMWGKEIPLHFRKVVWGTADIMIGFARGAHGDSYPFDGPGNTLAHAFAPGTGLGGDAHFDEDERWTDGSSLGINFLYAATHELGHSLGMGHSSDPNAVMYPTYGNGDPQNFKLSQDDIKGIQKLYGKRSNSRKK
Source text: as §1

[16] = Pseudomonas aeruginosa, PA14; read-out: MIC PA14

## CC(C)CC(C(=O)N[C@H](c1cn(-c2ccc(Cl)c(Cl)c2)nn1)C(C)C)P(=O)(O)O (mixture of isomers) [Example 170, (1-(((S)-1-(1-(3,4-dichlorophenyl)-1H-1,2,3-triazol-4-yl)-2-methylpropyl)amino)-4-methyl-1-oxopentan-2-yl)phosphonic acid]
[1]; at 100 μM
  inhibition at 100 µM: 11%
[2]; [16]
  MIC: > 100 µM
[3]; HEK293
  IC50: > 100 µM
[4]; A549
  IC50: > 100 µM
[5]; at 100 μM
  inhibition at 100 µM: < 10%
[6]; IC50 against LasB (Table 16), heteropentacycles and benzannulated heteropentacycles
  IC50: 60 ± 3 µM
[7]; HepG2
  IC50: > 100 µM
[8]; at 100 μM
  inhibition at 100 µM: < 10%
[9]; at 100 μM
  inhibition at 100 µM: < 10%
[10]
  inhibition at 100 µM: < 10%

## O=C(Nc1ccccc1)C(S)Cc1ccccc1 (racemic) [Example 1, 2-Mercapto-N,3-diphenylpropanamide]
[1]
  inhibition at 100 µM: < 10%
[11]; read-out: IC50 HDAC-3
  IC50: > 100 µM
[2]; Pseudomonas aeruginosa, PA14, read-out: MIC PA14
  MIC: > 100 µM
[12]
  inhibition at 100 µM: 34 ± 11%
[13]; read-out: IC50 HDAC-8
  IC50: > 100 µM
[3]; HEK293
  IC50: > 100 µM
[4]; A549
  IC50: > 100 µM
[5]
  inhibition at 100 µM: < 10%
[6]; IC50 against LasB
  IC50: 1.2 ± 0.1 µM
[7]; HepG2
  IC50: > 100 µM
[8]; read-out: IC50 ADAM17 (TACE)
  IC50: 2.2 ± 0.1 µM
[9]
  inhibition at 100 µM: < 10%
[14]
  inhibition at 100 µM: < 10%
[15]
  inhibition at 100 µM: < 10%

## Cc1ccc(NC(=O)C(CC(C)C)P(=O)(O)O)cc1 (centres unmarked) [Example 63, (4-Methyl-1-oxo-1-(p-tolylamino)pentan-2-yl)phosphonic acid]
[1]; at 100 μM
  inhibition at 100 µM: < 10%
[11]
  IC50: > 100 µM
[2]; [16]
  MIC: > 100 µM
[12]; at 100 μM
  inhibition at 100 µM: 10%
[13]
  IC50: > 100 µM
[3]; HEK293 cells
  IC50: > 100 µM
[4]; A549 cells
  IC50: > 100 µM
[5]; at 100 μM
  inhibition at 100 µM: < 10%
[6]; IC50 against LasB
  IC50: 0.051 ± 0.007 µM
[7]; HepG2 cells
  IC50: > 100 µM
[8]
  IC50: > 100 µM
[9]; at 100 μM
  inhibition at 100 µM: < 10%
[14]; at 100 μM
  inhibition at 100 µM: 12 ± 7%
[15]; at 100 μM
  inhibition at 100 µM: < 10%
